Assay results as given in ChEMBL document CHEMBL1201862, “PubChem BioAssay data set” (2004).
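These data come from cells grown in 96-well plates and exposed to compound for 48 hours at five concentrations. Abbreviation: GI50, concentration required for 50% inhibition of growth.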 Activity calls are given as the source filed them. No stated cut-off is given here; in the data, active = GI50 up to about 1.1 µM and inactive = higher.

Experiments:
Assay in all cases: NCI tumour cell line growth inhibition, 48 h
SW-620 = test system: SW-620
RPMI-8226 = test system: RPMI-8226
T47D = test system: T47D
UACC-62 = test system: UACC-62
ACHN = test system: ACHN
OVCAR-5 = test system: OVCAR-5
NCI-H23 = test system: NCI-H23
OVCAR-3 = test system: OVCAR-3
OVCAR-4 = test system: OVCAR-4
UACC-257 = test system: UACC-257
HCC 2998 = test system: HCC 2998
COLO 205 = test system: COLO 205
MCF7 = test system: MCF7
MDA-N = test system: MDA-N
BT-549 = test system: BT-549

| Compound | GI50 (SW-620) | GI50 (RPMI-8226) | GI50 (T47D) | GI50 (UACC-62) | GI50 (ACHN) | GI50 (OVCAR-5) | GI50 (NCI-H23) | GI50 (OVCAR-3) | GI50 (OVCAR-4) | GI50 (UACC-257) | GI50 (HCC 2998) | GI50 (COLO 205) | GI50 (MCF7) | GI50 (MDA-N) | GI50 (BT-549) |
| --- | --- | --- | --- | --- | --- | --- | --- | --- | --- | --- | --- | --- | --- | --- | --- |
| CC(C)CC(NC(=O)C(O)C(N)Cc1ccccc1)C(=O)O (stereo not drawn) | > 100 µM (inactive) | > 100 µM (inactive) | > 100 µM (inactive) | > 100 µM (inactive) | > 100 µM (inactive) | > 100 µM (inactive) | > 100 µM (inactive) | > 100 µM (inactive) | > 100 µM (inactive) | > 100 µM (inactive) | > 100 µM (inactive) | > 100 µM (inactive) | > 100 µM (inactive) | > 100 µM (inactive) |  |
| [N-]=[N+]=NCc1nc(N)c2c3c(sc2n1)CCCC3 | 6.85 µM (inactive) | 2.19 µM (inactive) | 6.85 µM (inactive) | 5.06 µM (inactive) | 3 µM (inactive) | 3.64 µM (inactive) | 1.3 µM (inactive) | 2.75 µM (inactive) | 0.631 µM (active) | 4.22 µM (inactive) | 1.84 µM (inactive) | 3.78 µM (inactive) | 2.19 µM (inactive) | 2.51 µM (inactive) |  |
| CC1CN=C(N(C(=O)Nc2ccc(Cl)c(Cl)c2)c2ccccc2)S1 (stereo not drawn) | 72.1 µM (inactive) | 64.9 µM (inactive) | 20.2 µM (inactive) |  | 57.8 µM (inactive) | > 100 µM (inactive) | 64.9 µM (inactive) | 68.1 µM (inactive) | 41.4 µM (inactive) | 68.5 µM (inactive) | 33.6 µM (inactive) | 37.2 µM (inactive) | 28.2 µM (inactive) | 36 µM (inactive) |  |
| Cn1cc(C(=O)c2nccc3c2cnc2ccccc23)ccc1=O | > 100 µM (inactive) | > 100 µM (inactive) | > 100 µM (inactive) | > 100 µM (inactive) | 12.2 µM (inactive) | > 100 µM (inactive) | > 100 µM (inactive) | > 100 µM (inactive) | > 100 µM (inactive) | > 100 µM (inactive) | > 100 µM (inactive) | 69.5 µM (inactive) |  | > 100 µM (inactive) |  |
| Cc1ccc(S(=O)(=O)N/N=C2/C3CCC(C3)C2c2ccccc2)cc1 (stereo not drawn) | > 100 µM (inactive) | > 100 µM (inactive) | > 100 µM (inactive) | > 100 µM (inactive) | > 100 µM (inactive) | > 100 µM (inactive) | > 100 µM (inactive) | > 100 µM (inactive) | > 100 µM (inactive) | > 100 µM (inactive) |  | > 100 µM (inactive) | > 100 µM (inactive) | > 100 µM (inactive) | > 100 µM (inactive) |
| CN1COCc2c1ccc1cc3ccc4c(c3nc21)COCN4S(C)(=O)=O | > 100 µM (inactive) |  | > 100 µM (inactive) | > 100 µM (inactive) | > 100 µM (inactive) | > 100 µM (inactive) | > 100 µM (inactive) | > 100 µM (inactive) | > 100 µM (inactive) | > 100 µM (inactive) | > 100 µM (inactive) | > 100 µM (inactive) | 0.202 µM (active) | > 100 µM (inactive) | > 100 µM (inactive) |
| O=c1cccc2n1C[C@H]1CNC[C@H]2C1 | > 100 µM (inactive) | > 100 µM (inactive) |  | > 100 µM (inactive) | > 100 µM (inactive) | > 100 µM (inactive) | > 100 µM (inactive) | > 100 µM (inactive) | > 100 µM (inactive) | > 100 µM (inactive) | > 100 µM (inactive) | > 100 µM (inactive) | > 100 µM (inactive) | > 100 µM (inactive) | > 100 µM (inactive) |
| S=C(NCc1ccccn1)N/N=C/c1ccccn1 | < 0.01 µM (active) | < 0.01 µM (active) | < 0.01 µM (active) | < 0.0181 µM (active) | < 0.01 µM (active) | < 0.01 µM (active) | < 0.01 µM (active) | < 0.01 µM (active) | < 0.0371 µM (active) | < 0.01 µM (active) | 0.229 µM (active) | < 0.01 µM (active) | < 0.01 µM (active) | 0.454 µM (active) |  |
| CC(C)C1=CC23CCC4C(C)(C(=O)O)CCCC4(C)C2CC1C1C(=O)N(c2ccc(Cc4ccc(N5C(=O)C6C7CC8C9(C)CCCC(C)(C(=O)O)C9CCC8(C=C7C(C)C)C6C5=O)cc4)cc2)C(=O)C13 (stereo not drawn) | 11.4 µM (inactive) | 9.14 µM (inactive) | 18.1 µM (inactive) | 11 µM (inactive) | 5.41 µM (inactive) | 20.8 µM (inactive) | 1.93 µM (inactive) | 10.7 µM (inactive) | 14.4 µM (inactive) |  | 10.1 µM (inactive) | 7.06 µM (inactive) | 5.13 µM (inactive) | 8.93 µM (inactive) |  |
| Cn1nc(C(=O)N2CC(CCl)c3c2cc(N)c2ccccc32)cc1NC(=O)Nc1cc(C(=O)N2CC(CCl)c3c2cc(N)c2ccccc32)nn1C (stereo not drawn) | 0.0271 µM (active) | 3.3 µM (inactive) | < 0.01 µM (active) | 0.107 µM (active) | 0.508 µM (active) | 0.301 µM (active) | 0.0225 µM (active) | 0.201 µM (active) | 0.449 µM (active) | 0.521 µM (active) | 1.21 µM (inactive) | 0.163 µM (active) |  | 0.157 µM (active) | 0.0718 µM (active) |
| CN(C)c1nc2sc3c(c2c(=O)o1)CCCC3 | 54.8 µM (inactive) | 35.8 µM (inactive) | 26.8 µM (inactive) | 41.8 µM (inactive) | 34.1 µM (inactive) | 60.1 µM (inactive) | 46.3 µM (inactive) |  | 27.9 µM (inactive) | 73.8 µM (inactive) | > 100 µM (inactive) | 23.6 µM (inactive) | 48.3 µM (inactive) | 38.2 µM (inactive) | 12.3 µM (inactive) |
| Cc1cc(NC2=NCCO2)c2c(c1C)CCCC2 | 27.1 µM (inactive) | 12.6 µM (inactive) | 13.6 µM (inactive) | 15.2 µM (inactive) | 10.1 µM (inactive) | 17.1 µM (inactive) | 18 µM (inactive) |  | 15.7 µM (inactive) | 9.33 µM (inactive) | 15.2 µM (inactive) | 17.1 µM (inactive) | 14.8 µM (inactive) |  |  |
| O=S(=O)(OI(O)CC(F)(F)F)C(F)(F)F | > 100 µM (inactive) | > 100 µM (inactive) | > 100 µM (inactive) | > 100 µM (inactive) | > 100 µM (inactive) | > 100 µM (inactive) | > 100 µM (inactive) | > 100 µM (inactive) | > 100 µM (inactive) | > 100 µM (inactive) | > 100 µM (inactive) | > 100 µM (inactive) | > 100 µM (inactive) |  | > 100 µM (inactive) |
| Brc1sc(Br)c2c1[C@H](Br)C[C@@H]2Br | 38.7 µM (inactive) |  | 26.1 µM (inactive) | 31.3 µM (inactive) | 32.8 µM (inactive) | > 100 µM (inactive) | 24.3 µM (inactive) | 41.9 µM (inactive) | 23.5 µM (inactive) | 40.2 µM (inactive) |  | 53.6 µM (inactive) | 29.6 µM (inactive) | 38.1 µM (inactive) | 29 µM (inactive) |
| CC(=O)NC(C)(C)C1CC=C(C)CC1 (stereo not drawn) | > 100 µM (inactive) | > 100 µM (inactive) |  | > 100 µM (inactive) | > 100 µM (inactive) | > 100 µM (inactive) | > 100 µM (inactive) | > 100 µM (inactive) | > 100 µM (inactive) | > 100 µM (inactive) | > 100 µM (inactive) | > 100 µM (inactive) | > 100 µM (inactive) | > 100 µM (inactive) | > 100 µM (inactive) |
| O=C(O)c1nn(-c2ccccc2)nc1-c1nn(-c2ccccc2)nc1C(=O)O | > 100 µM (inactive) | > 100 µM (inactive) | > 100 µM (inactive) | > 100 µM (inactive) | > 100 µM (inactive) | > 100 µM (inactive) | > 100 µM (inactive) | > 100 µM (inactive) | > 100 µM (inactive) | > 100 µM (inactive) | > 100 µM (inactive) | > 100 µM (inactive) | > 100 µM (inactive) | > 100 µM (inactive) |  |
| COc1cc(/C=C2\CCC(C)C3=C2N=c2s/c(=C/c4ccc(Cl)cc4)c(=O)n2C3c2cc(OC)c(OC)c(OC)c2)cc(OC)c1OC (stereo not drawn) | > 100 µM (inactive) | > 100 µM (inactive) |  | > 100 µM (inactive) | > 100 µM (inactive) | > 100 µM (inactive) |  |  | > 100 µM (inactive) | > 100 µM (inactive) |  |  | > 100 µM (inactive) | > 100 µM (inactive) |  |
| CC1(C)N=C(C2CCCN2C(=O)OCc2ccccc2)OC1=O (stereo not drawn) | > 100 µM (inactive) | > 100 µM (inactive) |  | > 100 µM (inactive) | > 100 µM (inactive) | > 100 µM (inactive) | > 100 µM (inactive) | > 100 µM (inactive) |  | > 100 µM (inactive) | > 100 µM (inactive) | > 100 µM (inactive) | > 100 µM (inactive) | > 100 µM (inactive) | > 100 µM (inactive) |
| O=C(O)C1C(Br)(c2ccccc2)C1(Br)c1ccccc1 (stereo not drawn) | 31.4 µM (inactive) | 11.8 µM (inactive) | 17.6 µM (inactive) | 17.9 µM (inactive) | 14.3 µM (inactive) | 58.9 µM (inactive) | 38.4 µM (inactive) | 50.4 µM (inactive) | 28.7 µM (inactive) | 48.9 µM (inactive) | 22.6 µM (inactive) | 13.4 µM (inactive) | 22 µM (inactive) |  | 19.9 µM (inactive) |
| [N-]=[N+]=NCc1cccc(Nc2cc(=O)[nH]c(=O)[nH]2)c1 | > 100 µM (inactive) | > 100 µM (inactive) | 51.2 µM (inactive) | > 100 µM (inactive) | > 100 µM (inactive) | > 100 µM (inactive) | > 100 µM (inactive) | > 100 µM (inactive) |  | 30.8 µM (inactive) | > 100 µM (inactive) | > 100 µM (inactive) | > 100 µM (inactive) | > 100 µM (inactive) | > 100 µM (inactive) |
